Structures are written as SMILES. Activity calls are given as the source filed them.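 The calls were made as follows: active = compounds whose EC50, the dose giving half of full IDE activation, is 100 µM or lower; inactive = EC50 above 100 µM or not measured.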 A value given as a limit tells only on which side of the number the result lay.

The target of the experiment is Insulin-degrading enzyme (Homo sapiens) (UniProt P14735). Briefly: activators of wild-type recombinant IDE, late-stage follow-up, counter-screen for IDE activator project, biochemical, fluorescence polarization, run by assay provider (AID 624043). The settings on record: FAbetaB cleavage.
Chain of Insulin-degrading enzyme (Homo sapiens) (P14735 whole entry, looked up): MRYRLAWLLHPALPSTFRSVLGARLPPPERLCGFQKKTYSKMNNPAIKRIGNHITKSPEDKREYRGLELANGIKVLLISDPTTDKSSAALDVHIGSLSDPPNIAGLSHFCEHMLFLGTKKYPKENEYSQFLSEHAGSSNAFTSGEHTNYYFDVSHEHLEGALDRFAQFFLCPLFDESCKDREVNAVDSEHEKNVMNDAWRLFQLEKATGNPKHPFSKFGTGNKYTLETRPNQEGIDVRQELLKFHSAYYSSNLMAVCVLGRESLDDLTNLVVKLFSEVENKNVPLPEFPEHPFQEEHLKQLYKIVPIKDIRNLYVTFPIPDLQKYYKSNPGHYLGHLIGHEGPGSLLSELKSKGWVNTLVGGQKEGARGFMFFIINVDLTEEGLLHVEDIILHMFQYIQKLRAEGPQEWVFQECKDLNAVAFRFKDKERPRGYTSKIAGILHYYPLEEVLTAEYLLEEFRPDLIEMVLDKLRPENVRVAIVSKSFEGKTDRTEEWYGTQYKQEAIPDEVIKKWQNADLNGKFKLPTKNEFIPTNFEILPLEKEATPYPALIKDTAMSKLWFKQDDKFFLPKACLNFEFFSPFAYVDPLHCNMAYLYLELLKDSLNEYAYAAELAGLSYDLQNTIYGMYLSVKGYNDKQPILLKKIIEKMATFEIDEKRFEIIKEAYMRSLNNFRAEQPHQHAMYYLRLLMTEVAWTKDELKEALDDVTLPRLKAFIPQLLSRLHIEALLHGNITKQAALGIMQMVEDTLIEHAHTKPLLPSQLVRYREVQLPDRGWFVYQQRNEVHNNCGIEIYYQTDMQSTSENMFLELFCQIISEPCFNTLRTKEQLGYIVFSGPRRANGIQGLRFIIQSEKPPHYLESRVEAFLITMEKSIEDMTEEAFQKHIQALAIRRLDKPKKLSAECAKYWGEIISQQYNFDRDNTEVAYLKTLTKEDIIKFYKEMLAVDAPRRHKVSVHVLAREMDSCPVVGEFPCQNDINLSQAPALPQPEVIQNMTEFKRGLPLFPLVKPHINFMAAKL
As to `CC(C)CCn1nnnc1CN1CCN(c2ccccc2F)CC1`, the EC50 is > 15 µM (inactive).
The result for `CCC(c1nnnn1CCC(C)C)N1CCN(c2ccccc2)CC1` (stereo not drawn) reads > 15 µM (inactive); that for `CC(C)CCn1nnnc1C(C(C)C)N1CCN(c2ccccc2)CC1` (stereo not drawn), > 15 µM (inactive).

(Values after PubChem BioAssay AID624043 (The Scripps Research Institute Molecular Screening Center, 2012).)
